Laboratory results taken from ChEMBL document CHEMBL4673332, “Neuroprotective and Anti-inflammatory Ditetrahydrofuran-Containing Diarylheptanoids from Tacca chantrieri” (J Nat Prod, 2020).

What was measured:
BV-2 [1] = assay: Antiinflammatory activity against LPS-induced mouse BV-2 cells assessed NO production at 1 uM preincubated for 2 hrs followed by LPS-stimulation and measured after 24 hrs by Greiss reagent based assay relative to control; type: functional; conditions: time 26 hrs
BV-2 [2] = assay: Cytotoxicity against mouse BV-2 cells assessed as reduction cell viability at 10 uM after 24 hrs by MTT assay; type: cell-based; conditions: bv-2, 24 h
BV-2 [3] = assay: Antiinflammatory activity against LPS-induced mouse BV-2 cells assessed NO production at 10 uM preincubated for 2 hrs followed by LPS-stimulation and measured after 24 hrs by Greiss reagent based assay relative to control; type: functional; conditions: time 26 hrs
SH-SY5Y [4] = assay: Neuroprotective activity in human SH-SY5Y cells assessed as reduction in amyloid beta (25 to 35)-induced cytotoxicity by measuring cell viability at 10 uM after 24 hrs by MTT assay relative to control; type: functional
SH-SY5Y [5] = assay: Neuroprotective activity in human SH-SY5Y cells assessed as reduction in amyloid beta (25 to 35)-induced cytotoxicity by measuring cell viability at 1 uM after 24 hrs by MTT assay relative to control; type: functional
SH-SY5Y [6] = assay: Cytotoxicity against human SH-SY5Y cells assessed as reduction cell viability at 1 to 10 uM after 24 hrs by MTT assay; type: cell-based; conditions: dose 1-10 µM
[7] = Cytotoxicity against mouse BV-2 cells assessed as cell viability at 10 uM after 24 hrs by MTT assay relative to control; type: cell-based; conditions: read-out: Activity

SMILES	Activity (BV-2 [1])	Activity (BV-2 [2])	Activity (BV-2 [3])	Activity (SH-SY5Y [4])	Activity (SH-SY5Y [5])	Activity (SH-SY5Y [6])	viability at 24 h, 10 µM [7]
COc1cc(CC[C@@H](O)C[C@H](O)CCc2ccc(O)cc2)ccc1O	99.4%	Non-Toxic	85.7%				
COc1cc(/C=C/C=C/C(=O)CCc2ccc(O)cc2)cc(OC)c1O	96.8%	Non-Toxic	77.4%	81.3%	66.1%	Non-Toxic	
COc1cc([C@@H]2O[C@@H](CC(=O)CCc3ccc(O)cc3)[C@@H]3[C@H]2[C@H](CC(=O)CCc2ccc(O)cc2)O[C@H]3c2ccc(O)cc2)ccc1O	99.6%	Non-Toxic	86.8%	91.9%	69.6%	Non-Toxic	
O=C(CCc1ccc(O)cc1)C[C@@H]1O[C@@H](c2ccc(O)cc2)[C@H]2[C@@H]1[C@H](c1ccc(O)cc1)O[C@H]2CC(=O)CCc1ccc(O)cc1	100.9%		87.8%	70.9%	70.7%		< 70%
COc1cc([C@@H]2O[C@@H](CC(=O)CCc3ccc(O)cc3)[C@@H]3[C@H]2[C@H](CC(=O)CCc2ccc(O)cc2)O[C@H]3c2ccc(O)c(OC)c2)ccc1O	101.4%		85%	76.3%	69%	Non-Toxic	< 70%
COc1cc(CC[C@@H](O)C[C@H](O)CCc2ccc(O)c(OC)c2)ccc1O	101.2%	Non-Toxic	84.3%				
Oc1ccc2cc1Oc1ccc(cc1)CC[C@H](O)C[C@@H](O)CC2 (relative stereo)	98.8%	Non-Toxic	84.6%				
Oc1ccc(CC[C@@H](O)C[C@H](O)CCc2ccc(O)cc2)cc1 [(+)-HANNOKINOL]	101.9%	Non-Toxic	94.8%				
O=C(O[C@@H]1Cc2c(O)cc(O)cc2O[C@@H]1c1cc(O)c(O)c(O)c1)c1cc(O)c(O)c(O)c1 [EPIGALOCATECHIN GALLATE]				80.8%			
Oc1ccc(/C=C/c2cc(O)cc(O)c2)cc1 [RESVERATROL]	67.5%						
